According to PubChem BioAssay (NCI):
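Exposure lasted 48 hours, with cells grown in 96-well plates and compounds tested at five concentrations. GI50: concentration for 50% inhibition of growth. TGI is the concentration that stops growth completely.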

How the values were obtained:
Test in all cases: NCI anticancer screen, dose series, 48 h
EKVX NSCLC = test system: EKVX NSCLC
MALME-3M melanoma = test system: MALME-3M melanoma
HOP-92 NSCLC = test system: HOP-92 NSCLC
SK-MEL-2 melanoma = test system: SK-MEL-2 melanoma
HL-60(TB) leukemia = test system: HL-60(TB) leukemia
RXF 393 renal = test system: RXF 393 renal
SK-MEL-5 melanoma = test system: SK-MEL-5 melanoma
UACC-257 melanoma = test system: UACC-257 melanoma
SW-620 colon = test system: SW-620 colon
M14 melanoma = test system: M14 melanoma
COLO 205 colon = test system: COLO 205 colon
OVCAR-5 ovarian = test system: OVCAR-5 ovarian
HT29 colon = test system: HT29 colon
T-47D breast = test system: T-47D breast
DU-145 prostate = test system: DU-145 prostate
CAKI-1 renal = test system: CAKI-1 renal
U251 CNS = test system: U251 CNS
NCI-H460 lung = test system: NCI-H460 lung
SNB-19 CNS = test system: SNB-19 CNS
SK-OV-3 ovarian = test system: SK-OV-3 ovarian
LOX IMVI melanoma = test system: LOX IMVI melanoma
BT-549 breast = test system: BT-549 breast
SK-MEL-28 melanoma = test system: SK-MEL-28 melanoma
PC-3 prostate = test system: PC-3 prostate
SNB-75 CNS = test system: SNB-75 CNS
NCI/ADR-RES ovarian = test system: NCI/ADR-RES ovarian
NCI-H522 lung = test system: NCI-H522 lung
A549 NSCLC = test system: A549 NSCLC
786-0 renal = test system: 786-0 renal
SF-295 CNS = test system: SF-295 CNS
SR leukemia = test system: SR leukemia
MDA-MB-231 breast = test system: MDA-MB-231 breast
ACHN renal = test system: ACHN renal
OVCAR-4 ovarian = test system: OVCAR-4 ovarian
HCC-2998 colon = test system: HCC-2998 colon
RPMI-8226 leukemia = test system: RPMI-8226 leukemia
A498 renal = test system: A498 renal
SF-268 CNS = test system: SF-268 CNS
HCT-15 colon = test system: HCT-15 colon
MDA-MB-435 = test system: MDA-MB-435
TK-10 renal = test system: TK-10 renal
OVCAR-8 ovarian = test system: OVCAR-8 ovarian
KM12 colon = test system: KM12 colon
NCI-H226 lung = test system: NCI-H226 lung
UACC-62 melanoma = test system: UACC-62 melanoma
IGROV1 ovarian = test system: IGROV1 ovarian
HOP-62 NSCLC = test system: HOP-62 NSCLC
HCT-116 colon = test system: HCT-116 colon
SF-539 CNS = test system: SF-539 CNS
CCRF-CEM leukemia = test system: CCRF-CEM leukemia
NCI-H23 lung = test system: NCI-H23 lung
UO-31 renal = test system: UO-31 renal
HS 578T breast = test system: HS 578T breast
SN12C renal = test system: SN12C renal
MOLT-4 leukemia = test system: MOLT-4 leukemia
K-562 leukemia = test system: K-562 leukemia

With `CCOc1ccccc1NC1=C(Cl)C(=O)c2nc(C)ccc2C1=O` the GI50 (EKVX NSCLC) was 1.56 µM, the TGI (EKVX NSCLC) was 2.98 µM and the GI50 (MALME-3M melanoma) was 1.36 µM. The TGI (MALME-3M melanoma) was 2.77 µM, the GI50 (HOP-92 NSCLC) was 1.8 µM and the TGI (HOP-92 NSCLC) was 3.33 µM. For the same molecule, the GI50 (SK-MEL-2 melanoma) was 1.44 µM, the TGI (SK-MEL-2 melanoma) was 2.86 µM and the GI50 (HL-60(TB) leukemia) was 1.03 µM. For the same molecule, the TGI (HL-60(TB) leukemia) was 2.92 µM, the GI50 (RXF 393 renal) was 1.44 µM and the TGI (RXF 393 renal) was 2.78 µM. The GI50 (SK-MEL-5 melanoma) was 1.74 µM, the TGI (SK-MEL-5 melanoma) was 3.13 µM and the GI50 (UACC-257 melanoma) was 1.28 µM. The TGI (UACC-257 melanoma) was 2.61 µM, the GI50 (SW-620 colon) was 1.6 µM and the TGI (SW-620 colon) was 3.21 µM. The GI50 (M14 melanoma) was 1.46 µM, the TGI (M14 melanoma) was 2.83 µM and the GI50 (COLO 205 colon) was 1.73 µM. It also gave a TGI (COLO 205 colon) of 3.66 µM, a GI50 (OVCAR-5 ovarian) of 1.84 µM and a TGI (OVCAR-5 ovarian) of 3.33 µM. It also gave a GI50 (HT29 colon) of 3.4 µM, a TGI (HT29 colon) of 15.2 µM and a GI50 (T-47D breast) of 0.467 µM. It also gave a TGI (T-47D breast) of 3.17 µM, a GI50 (DU-145 prostate) of 1.63 µM and a TGI (DU-145 prostate) of 2.99 µM. For the same molecule, the GI50 (CAKI-1 renal) was 1.45 µM, the TGI (CAKI-1 renal) was 2.84 µM and the GI50 (U251 CNS) was 1.7 µM. It also gave a TGI (U251 CNS) of 3.27 µM, a GI50 (NCI-H460 lung) of 3.02 µM and a TGI (NCI-H460 lung) of 11.4 µM. For the same molecule, the GI50 (SNB-19 CNS) was 1.8 µM, the TGI (SNB-19 CNS) was 3.97 µM and the GI50 (SK-OV-3 ovarian) was 13.5 µM. It also gave a TGI (SK-OV-3 ovarian) of 27.1 µM, a GI50 (LOX IMVI melanoma) of 0.839 µM and a TGI (LOX IMVI melanoma) of 2.22 µM. The GI50 (BT-549 breast) was 1.52 µM, the TGI (BT-549 breast) was 2.88 µM and the GI50 (SK-MEL-28 melanoma) was 1.71 µM. For the same molecule, the TGI (SK-MEL-28 melanoma) was 3.14 µM, the GI50 (PC-3 prostate) was 1.26 µM and the TGI (PC-3 prostate) was 2.77 µM. It also gave a GI50 (SNB-75 CNS) of 1.63 µM, a TGI (SNB-75 CNS) of 3.43 µM and a GI50 (NCI/ADR-RES ovarian) of 1.89 µM. It also gave a TGI (NCI/ADR-RES ovarian) of 5.09 µM, a GI50 (NCI-H522 lung) of 1.74 µM and a TGI (NCI-H522 lung) of 3.28 µM. The GI50 (A549 NSCLC) was 2.06 µM, the TGI (A549 NSCLC) was 4.65 µM and the GI50 (786-0 renal) was 1.8 µM. For the same molecule, the TGI (786-0 renal) was 3.25 µM, the GI50 (SF-295 CNS) was 2.03 µM and the TGI (SF-295 CNS) was 4.2 µM. The GI50 (SR leukemia) was 0.543 µM, the TGI (SR leukemia) was 4.14 µM and the GI50 (MDA-MB-231 breast) was 1.07 µM. The TGI (MDA-MB-231 breast) was 2.38 µM, the GI50 (ACHN renal) was 1.35 µM and the TGI (ACHN renal) was 2.69 µM. The GI50 (OVCAR-4 ovarian) was 1 µM, the TGI (OVCAR-4 ovarian) was 2.22 µM and the GI50 (HCC-2998 colon) was 1.94 µM. For the same molecule, the TGI (HCC-2998 colon) was 3.52 µM, the GI50 (RPMI-8226 leukemia) was 1.2 µM and the TGI (RPMI-8226 leukemia) was 4.71 µM. For the same molecule, the GI50 (A498 renal) was 2.65 µM, the TGI (A498 renal) was 10.8 µM and the GI50 (SF-268 CNS) was 1.47 µM. The TGI (SF-268 CNS) was 2.94 µM, the GI50 (HCT-15 colon) was 1.13 µM and the TGI (HCT-15 colon) was 2.55 µM. It also gave a GI50 (MDA-MB-435) of 0.266 µM, a TGI (MDA-MB-435) of 0.671 µM and a GI50 (TK-10 renal) of 2.25 µM. It also gave a TGI (TK-10 renal) of 3.72 µM, a GI50 (OVCAR-8 ovarian) of 1.49 µM and a TGI (OVCAR-8 ovarian) of 2.92 µM. It also gave a GI50 (KM12 colon) of 1.41 µM, a TGI (KM12 colon) of 2.89 µM and a GI50 (NCI-H226 lung) of 1.78 µM. It also gave a TGI (NCI-H226 lung) of 4.24 µM, a GI50 (UACC-62 melanoma) of 1.8 µM and a TGI (UACC-62 melanoma) of 3.36 µM. For the same molecule, the GI50 (IGROV1 ovarian) was 1.37 µM, the TGI (IGROV1 ovarian) was 2.82 µM and the GI50 (HOP-62 NSCLC) was 2.27 µM. For the same molecule, the TGI (HOP-62 NSCLC) was 6.74 µM, the GI50 (HCT-116 colon) was 1.05 µM and the TGI (HCT-116 colon) was 2.31 µM. It also gave a GI50 (SF-539 CNS) of 1.67 µM, a TGI (SF-539 CNS) of 3.09 µM and a GI50 (CCRF-CEM leukemia) of 1.41 µM. It also gave a TGI (CCRF-CEM leukemia) greater than 100 µM, a GI50 (NCI-H23 lung) of 1.44 µM and a TGI (NCI-H23 lung) of 3.55 µM. It also gave a GI50 (UO-31 renal) of 1.4 µM, a TGI (UO-31 renal) of 2.71 µM and a GI50 (HS 578T breast) of 2.11 µM. It also gave a TGI (HS 578T breast) of 5.25 µM, a GI50 (SN12C renal) of 1.59 µM and a TGI (SN12C renal) of 3.04 µM. The GI50 (MOLT-4 leukemia) was 2.03 µM and the TGI (MOLT-4 leukemia) was 8.09 µM.

Work on `Nc1cc(-c2c[nH]c3ccc(Br)cc23)nc2cc(-c3c[nH]c4ccc(Br)cc34)nn12` yielded a GI50 (MALME-3M melanoma) of 1.93 µM, a TGI (MALME-3M melanoma) of 4.08 µM and a GI50 (SK-MEL-2 melanoma) of 1.67 µM. The TGI (SK-MEL-2 melanoma) was 3.27 µM, the GI50 (RXF 393 renal) was 1.83 µM and the TGI (RXF 393 renal) was 3.54 µM. It also gave a GI50 (SK-MEL-5 melanoma) of 1.7 µM, a TGI (SK-MEL-5 melanoma) of 3.18 µM and a GI50 (UACC-257 melanoma) of 1.63 µM. For the same molecule, the TGI (UACC-257 melanoma) was 3.2 µM, the GI50 (COLO 205 colon) was 1.76 µM and the TGI (COLO 205 colon) was 3.23 µM. The GI50 (OVCAR-5 ovarian) was 1.53 µM, the TGI (OVCAR-5 ovarian) was 3.11 µM and the GI50 (HT29 colon) was 1.71 µM. For the same molecule, the TGI (HT29 colon) was 3.15 µM, the GI50 (DU-145 prostate) was 1.72 µM and the TGI (DU-145 prostate) was 3.23 µM. It also gave a GI50 (CAKI-1 renal) of 1.43 µM, a TGI (CAKI-1 renal) of 3.15 µM and a GI50 (SK-OV-3 ovarian) of 1.71 µM. It also gave a TGI (SK-OV-3 ovarian) of 3.44 µM, a GI50 (SK-MEL-28 melanoma) of 1.62 µM and a TGI (SK-MEL-28 melanoma) of 3.08 µM. The GI50 (SNB-75 CNS) was 1.17 µM, the TGI (SNB-75 CNS) was 3.77 µM and the GI50 (NCI/ADR-RES ovarian) was 2.5 µM. It also gave a TGI (NCI/ADR-RES ovarian) of 6.14 µM, a GI50 (K-562 leukemia) of 2.81 µM and a TGI (K-562 leukemia) greater than 100 µM. The GI50 (SF-295 CNS) was 1.89 µM, the TGI (SF-295 CNS) was 3.57 µM and the GI50 (MDA-MB-231 breast) was 1.89 µM. For the same molecule, the TGI (MDA-MB-231 breast) was 3.79 µM, the GI50 (ACHN renal) was 1.56 µM and the TGI (ACHN renal) was 2.96 µM. It also gave a GI50 (OVCAR-4 ovarian) of 2.03 µM, a TGI (OVCAR-4 ovarian) of 5.25 µM and a GI50 (HCC-2998 colon) of 1.8 µM. The TGI (HCC-2998 colon) was 3.34 µM, the GI50 (RPMI-8226 leukemia) was 3.17 µM and the TGI (RPMI-8226 leukemia) was greater than 100 µM. It also gave a GI50 (A498 renal) of 1.57 µM, a TGI (A498 renal) of 4.07 µM and a GI50 (HCT-15 colon) of 1.36 µM. It also gave a TGI (HCT-15 colon) of 3.18 µM, a GI50 (MDA-MB-435) of 1.71 µM and a TGI (MDA-MB-435) of 3.25 µM. For the same molecule, the GI50 (TK-10 renal) was 1.8 µM, the TGI (TK-10 renal) was 3.39 µM and the GI50 (KM12 colon) was 1.48 µM. The TGI (KM12 colon) was 2.96 µM, the GI50 (NCI-H226 lung) was 2.14 µM and the TGI (NCI-H226 lung) was 6.11 µM. For the same molecule, the GI50 (UACC-62 melanoma) was 1.48 µM, the TGI (UACC-62 melanoma) was 3.05 µM and the GI50 (SF-539 CNS) was 1.46 µM. For the same molecule, the TGI (SF-539 CNS) was 2.92 µM, the GI50 (CCRF-CEM leukemia) was 3.21 µM and the TGI (CCRF-CEM leukemia) was greater than 100 µM. It also gave a GI50 (UO-31 renal) of 1.47 µM, a TGI (UO-31 renal) of 2.79 µM and a GI50 (HS 578T breast) of 2.3 µM. It also gave a TGI (HS 578T breast) of 7.54 µM, a GI50 (SN12C renal) of 1.84 µM and a TGI (SN12C renal) of 3.64 µM.
